Here are results for 8 molecules from patent US20110312897A1, “CATHEPSIN L PROTEOLYTICALLY PROCESSES HISTONE H3 DURING MOUSE EMBRYONIC STEM CELL DIFFERENTIATION” (THE ROCKEFELLER UNIVERSITY, priority 2008, published 2011).

Assay [1] has as its target T1, H3 protease activity in fraction #23 (Mus musculus, UniProt P06797).
T1 construct: a double chain mature form at ˜25 kD and ˜5 kD; endogenous in cells; host or cells: chromatin of 3 days +RA differentiating mouse ESCs (LF2), hydroxyapatite fraction #23
Kind of assay: In vitro H3 cleavage assay of hydroxyapatite fraction #23 +/- protease inhibitors. In kind it is biochemical. The protocol:
Extracts were incubated in buffer (10 mM HEPES, 10 mM KCl, 1.5 mM MgCl2, 0.34M sucrose, 10% glycerol, 5 mM β-mercaptoethanol, all final) with 0.1 μg/μl rH3-HIS (purified from E. coli) and incubated at 37° C. for 1-3 hours. Reactions were stopped by addition of 5×SDS sample buffer and boiling; results were analyzed by immunoblotting with HIS-HRP and/or H3.cs1 antibody. For MS analysis, reactions were quenched by addition of 0.1% (final) TFA. rCathepsin L (R&D Systems, # 1515-CY-010), rCathepsin B (R&D Systems Cat No. BAF965), and rCathepsin K (Calbiochem Cat. No. 342001) were purchased from commercial sources and tested in the assay with rH3-HIS.
Three days+RA differentiating ESC chromatin pellets were solubilized by sonication in buffer A (80 mM NaPO^−4, 200 mM NaCl), injected onto a 2 or 5 mL hydroxyapatite column (BioRad), and fractionated with a 200 mM to 2M NaCl gradient. Each fraction was then assayed as described above. […] Digest was then acidified with glacial acetic acid and aliquots of samples were analyzed using an LTQ-FT as described above. Data was searched against a mouse database using SEQUEST (Eng et al., Journal of the American Society of Mass Spectrometry 5:976-989 (1994), which is hereby incorporated by reference in its entirety). All spectra of interest were manually validated.
To validate further the identification of Cathepsin L as a histone H3 protease, the enriched fractions were tested with different classes of protease inhibitors in the H3 cleavage assay.

For assay [2], the target named is T2, Cathepsin L (Mus musculus, UniProt P06797).
T2 construct: endogenous in cells; host or cells: mouse ES cells (LF2 line), RA-differentiated
T2 sequence (P06797 114-334): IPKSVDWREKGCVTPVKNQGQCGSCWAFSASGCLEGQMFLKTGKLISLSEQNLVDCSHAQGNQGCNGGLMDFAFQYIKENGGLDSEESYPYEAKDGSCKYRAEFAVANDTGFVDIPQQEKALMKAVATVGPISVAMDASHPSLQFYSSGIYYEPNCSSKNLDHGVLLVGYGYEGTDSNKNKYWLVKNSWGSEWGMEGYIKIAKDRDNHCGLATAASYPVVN
Kind of assay: Chemical inhibition of Cathepsin L in RA-differentiating ESCs (immunoblot). It is filed as cell-based. As to conditions: 10 uM in cell media, RA differentiation. The protocol:
(§1) ES cells (LF2 line) were cultured as previously described (Bernstein et al., “Mouse Polycomb Proteins Bind Differentially to Methylated Histone H3 and RNA and are Enriched in Facultative Heterochromatin,” Mol Cell Biol 26:2560-2569 (2006), which is hereby incorporated by reference in its entirety). Cells were grown on gelatin-coated plates without feeder cells and maintained in an undifferentiated state through culture in KODMEM (Invitrogen 1082-9018)), 2 mM L-glutamine (Sigma G7513), 15% ES grade fetal bovine serum (Gibco 10439-024), 10^−4 mM 2-mercaptoethanol, and leukemia inhibitory factor (LIF). To differentiate, cells were plated sparsely at ˜1*10^4 cells/cm^2, allowed to adhere overnight and then fed with differentiation media containing DMEM, 10% FBS, 10^−4 mM 2-mercaptoethanol and, for retinoic acid (RA) differentiation, 100 nM all-trans-RA (Sigma R2625). Embryoid body formation was accomplished by splitting partially trypsinized cells onto non-treated petri dishes and allowing cells to cluster. Chemical inhibition of Cathepsin L was accomplished by adding 10 uM [final] Cathepsin L I inhibitor (Calbiochem, Cat. No. 219402) to the cell media.
Whole cell extracts were prepared by resuspending fresh or flash frozen cell pellets in SDS-Laemmli sample buffer and boiling immediately. […]
(§2) To further assess whether Cathepsin L causes histone H3 cleavage in vivo, a commercially available, cell-permeable Cathepsin L specific inhibitor, Cathepsin L Inhibitor I, was used Inhibition of Cathepsin L using a chemical inhibitor allowed the effect of Cathepsin L inhibition to be assessed within a single, wild-type cell line rather than comparing individual cell lines created by drug selection. […]
A general note: A western blot detects proteins with antibodies after separation by electrophoresis.

The test system of assay [3] is differentiating ESCs. Kind of assay: Pluripotency and lineage marker expression in differentiating ESCs (immunoblot, Q-PCR). It is filed as cell-based, mouse. As to conditions: for Nanog expression: inhibitor vs control cells.
Description: FIGS. 15A-15C show the effect of in vivo chemical inhibition of Cathepsin L on the transcriptional profile of differentiating ESCs. Cells were differentiated with RA in the presence of either Cathepsin L I inhibitor or DMSO alone, as in FIG. 6B. mRNA was isolated from those cells at the time points indicated, reverse transcribed into cDNA, and assayed for the expression of specific genes by Q-PCR with SYBR green. The data shown in FIGS. 15A-15C represent the average of two independent experiments.
as §1
RNA was isolated from undifferentiated and +RA differentiating ESCs using Trizol reagent as directed by the manufacturer (Invitrogen Cat. No. 15596-018). RNA was transcribed into cDNA using the First Strand Superscript kit (Invitrogen Cat. No. 18080-051) and analyzed by quantitative PCR using SYBRgreen reagent (Applied Biosystems Cat. No. 4309155).
Importantly, neither Oct-3/4 nor Cathepsin B levels (FIG. 6C, panels d and e) appeared to change upon addition of the inhibitor.

Assay [4] deals with T3, Cathepsin B (Mus musculus, UniProt P10605).
T3 construct: endogenous in cells; host or cells: mouse ES cells (LF2 line), RA-differentiated
T3 sequence (P10605 80-333): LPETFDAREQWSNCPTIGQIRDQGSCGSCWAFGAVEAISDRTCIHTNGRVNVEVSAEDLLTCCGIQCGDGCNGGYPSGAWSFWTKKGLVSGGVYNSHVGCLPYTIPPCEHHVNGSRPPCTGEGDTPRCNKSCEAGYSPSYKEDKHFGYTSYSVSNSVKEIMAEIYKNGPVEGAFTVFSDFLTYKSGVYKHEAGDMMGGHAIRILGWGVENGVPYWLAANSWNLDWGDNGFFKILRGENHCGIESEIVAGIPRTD
In words: Chemical inhibition in RA-differentiating ESCs, Cathepsin B immunoblot. It is filed as cell-based. The note with it: 10 uM in cell media, RA differentiation, vs control cells. How it is done:
ES cells (LF2 line) were cultured as previously described (Bernstein et al., “Mouse Polycomb Proteins Bind Differentially to Methylated Histone H3 and RNA and are Enriched in Facultative Heterochromatin,” Mol Cell Biol 26:2560-2569 (2006), which is hereby incorporated by reference in its entirety). Cells were grown on gelatin-coated plates without feeder cells and maintained in an undifferentiated state through culture in KODMEM (Invitrogen 1082-9018)), 2 mM L-glutamine (Sigma G7513), 15% ES grade fetal bovine serum (Gibco 10439-024), 10^−4 mM 2-mercaptoethanol, and leukemia inhibitory factor (LIF). To differentiate, cells were plated sparsely at ˜1*10^4 cells/cm^2, allowed to adhere overnight and then fed with differentiation media containing DMEM, 10% FBS, 10^−4 mM 2-mercaptoethanol and, for retinoic acid (RA) differentiation, 100 nM all-trans-RA (Sigma R2625). […]
as §2

The target in assay [5] is H3 cleavage activity (Mus musculus, UniProt P06797). In words: H3 cleavage activity with addition of chelators. It is filed as biochemical. The note with it: moderately high concentrations. The protocol: Extracts were incubated in buffer (10 mM HEPES, 10 mM KCl, 1.5 mM MgCl2, 0.34M sucrose, 10% glycerol, 5 mM β-mercaptoethanol, all final) with 0.1 μg/μl rH3-HIS (purified from E. coli) and incubated at 37° C. for 1-3 hours. […] For MS analysis, reactions were quenched by addition of 0.1% (final) TFA. rCathepsin L (R&D Systems, # 1515-CY-010), rCathepsin B (R&D Systems Cat No. BAF965), and rCathepsin K (Calbiochem Cat. No. 342001) were purchased from commercial sources and tested in the assay with rH[…].
Chain of H3 cleavage activity (P06797 114-334): as the sequence (P06797 114-334) above

In assay [6] the target is T4, rCathepsin L (Mus musculus, UniProt P06797).
T4 construct: purchased R&D Systems 1515-CY-010
T4 sequence (P06797 114-334): as above
In words: ELISA based H3cs.1 cleavage assay of H3 15-31 peptides. As to conditions: pH 7.5 and pH 5.5; compared to unmodified H3 15-31 peptide. In kind it is biochemical. How it is done:
FIG. 7A is an immunoblot showing cleavage of the modified recombinant histone 3 substrates following incubation with rCathepsin L. The four rH3 substrates used in the cleavage assay include: 1=rH3 unmodified, 2=rH3 alkylated to K27me2, 3=rH3 pan-acetylated with acetic anhydride, 4=rH3+K27me2 pan-acetylated with acetic anhydride. FIG. 7B is a graph showing the amount of recombinant H3 cleavage product formed following incubation with Cathepsin L. H3 cleavage reactions were performed as in FIG. 7A using synthesized H3 peptides representing amino acids 15 to 31. Reactions were incubated with ˜250 pmol peptide and quenched with 0.1% TFA before being plated in duplicate for ELISA with the H3cs.1 antibody. Signal was normalized to that of mock reactions for each peptide. Results represent three independent experiments. […] Binding decreases 3-fold with cleaved peptide. p<0.01. Kds are in μM±SEM. Data points represent the mean±SD
In order to test the effect of these modifications more quantitatively and specifically, a set of five peptides with identical backbone sequences flanking the H3 cleavage site (H3 15-31) were synthesized and then modified as follows: unmodified, K18 acetyl, K23 acetyl, K18ac+K23ac, and K27me2. An ELISA based assay using the H3cs.1 antibody described previously (characterized in FIG. 11) was used to quantitatively measure the H3cs.1 cleavage activity of rCathepsin L on these peptides.
In general terms: An ELISA detects its analyte on a solid surface through an enzyme-linked reagent.

[7] abbreviates: Q-PCR, after 3 days of differentiation, vs control cells.

Where a SMILES comes first, the peptide text is derived from it. Where no end group is shown, it is not given here. The star is where a group is joined. Cbz = O=C(OCc1ccccc1)*; CH2F = FC*

T1 sequence (P06797 114-288 limits assumed): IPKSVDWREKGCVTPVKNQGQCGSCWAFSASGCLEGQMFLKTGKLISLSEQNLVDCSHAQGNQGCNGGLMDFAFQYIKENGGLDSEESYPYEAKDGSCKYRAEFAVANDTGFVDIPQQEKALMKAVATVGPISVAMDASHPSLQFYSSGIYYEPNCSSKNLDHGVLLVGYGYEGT
T1 sequence (P06797 291-334 limits assumed): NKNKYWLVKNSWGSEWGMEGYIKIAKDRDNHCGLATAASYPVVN

With `NCCc1ccc(S(=O)(=O)F)cc1` [AEBSF], the H3 cleavage activity result in assay [1] (AEBSF 2 mM and 10 mM) was “not at the lower concentrations tested”; in assay [1] (AEBSF 20 mM), “modest reduction in cleavage activity”.
Regarding `O=C(NC(Cc1ccccc1)C(=O)NC(Cc1ccccc1)C(=O)CF)OCc1ccccc1` (stereo not drawn) [Cathepsin L Inhibitor I] (Cbz-Phe-Phe-CH2F; configuration not given here), in assay [2], the “all cleavage detected by the H3-general antibody” value was “abolished”. Further, in assay [2] (vs DMSO), the “histone H3 cleavage (H3-general and H3.cs1 antibodies)” value was “decreased significantly”; the “processing of Cathepsin L from intermediate form into mature form” value is “significant failure to fully process Cathepsin L”. Also, in assay [3] (setting [7]), the Nestin expression result is listed as “trend toward maintaining higher expression” and the Pax3 expression entry is reported as “trend toward maintaining higher expression”. In addition, the Nanog expression result in assay [3] (Q-PCR) is “remains unaffected”. Further, the Nanog expression result in assay [3] (Q-PCR, listed as Cathepsin L I inhibitor) is listed as “does not differ significantly”. In addition, in assay [3] (Q-PCR, vs control), the Gata6 expression entry is “decreased expression” and the Sox17 expression result is “decreased expression”. In addition, in assay [3] (Q-PCR, vs control cells), the HoxA1 expression entry is recorded as “did not show any significant trend” and the Musashi expression result is recorded as “did not show any significant trend”. For the same molecule, the “Oct-3/4 loss pattern (pluripotency marker)” value in assay [3] (immunoblot, RA differentiation) is on record as “unchanged”. For the same molecule, the “Cathepsin B levels” value in assay [4] is on record as “consistency of Cathepsin B levels”.
`O=C(O)CN(CCN(CC(=O)O)CC(=O)O)CC(=O)O` [EDTA, Ethylenediaminetetraacetic acid]: the H3 cleavage activity entry in assay [5] is on record as “Significant inhibition”.
Same read-out and setting: as for `O=C(O)CN(CCOCCOCCN(CC(=O)O)CC(=O)O)CC(=O)O` [EGTA], the entry is “Significant inhibition”.
With “K18 acetyl: synthesized H3 15-31 peptide acetylated at K18 (APRKQLATKAARKSAPA; K18 acetylation; UniProt P68433 16-32, looked up, fragment)”, in assay [6], the “H3cs.1 cleavage activity of rCathepsin L on peptide” value is recorded as “increases”.
In the case of “K18ac+K23ac: synthesized H3 15-31 peptide acetylated at K18 and K23 (APRK(Ac)QLATK(Ac)AARKSAPA; UniProt P68433 16-32, looked up, fragment)”, the “H3cs.1 cleavage activity of rCathepsin L on peptide” value in assay [6] is reported as “very little cleavage activity”.
The same measure, in the same setting: to “K23ac: synthesized H3 15-31 peptide acetylated at K23 (APRKQLATK(Ac)AARKSAPA; UniProt P68433 16-32, looked up, fragment)” belongs “very little cleavage activity”.
On the same count and under the same terms, to “K27me2: synthesized H3 15-31 peptide modified with K27me2 (APRKQLATKAARKSAPA; K27 dimethylation; UniProt P68433 16-32, looked up, fragment)” belongs “strongly increases”.
